Reference: patent publication US11564923B2, “Compounds and pharmaceutical compositions thereof for the treatment of inflammatory disorders” (Galapagos NV, priority 2017, dated 2023)
Counter-ions that a name gives are not always drawn.

Key:
[1] = tested on: IL-12 activation of STAT4 in NK-92 cells; test: IL-12 activation of STAT4 in NK-92 cells using AphaLISA SureFire technology; assay type: cell-based; details: Homo sapiens, NK92; IL-12 activation of STAT4 in NK-92 cells, AlphaLISA SureFire; average IC50; read-out: IL12 pSTAT4 IC50
Description: IL-2 is added freshly to the medium with each medium refreshment step. Cells are cultured in a humidified incubator at 37° C. 5% CO2.
A subcultured fraction of NK-92 cells is washed once in culture medium without rhIL-2 the day before the experiment and incubated overnight in a culture flask.
5% CO2. […] NK-92 cells are triggered with rhIL-12 for 30 min at 37° C. 5% CO2.
After 30 min of cytokine stimulation the cells are lysed by addition of 15 μL 5× lysis buffer (supplemented with the AlphaLISA kit). After 10 minutes, plates are frozen at −80° C. overnight and the next day the levels of phospho-STAT4 are quantified using the AlphaLISA SureFire ULTRA p-STAT4 (Tyr693) (Perkin Elmer, Catalogue number ALSU-PST4-A10K) according to the manufacturers instructions. AlphaLISA signal (relative light units) is measured using an Envision (Perkin Elmer).
(§1) The percentage inhibition is calculated as: […]
RLU(trigger/veh): Relative lumescent signal determined in presence of vehicle and trigger
RLU(test compound): Relative luminescent signal determined in presence of test compounds and trigger
PIN values are plotted for compounds tested in dose-response and IC50 values are derived using GraphPad Prism Software applying non-linear regression (sigmoidal) curve fitting. The data are expressed as the average IC50 from different experiments.

[2] = tested on: IFNα activation of STAT1 in PBMC; test: IFNα activation of STAT1 in PBMC; assay type: cell-based; details: Homo sapiens; IFNα activation of STAT1 in PBMC; average IC50; read-out: IFNα signaling inhibitory potency IC50
Description: After these 2 wash steps the cell pellet is dissolved in ammonium chloride buffer (1.5 M NH4Cl, 100 mM NaHCO3 and 10 mM Na2.EDTA) for lysis of the red blood cells.
PBMC are treated with test compound for 30 min at 37° C. 5% CO2. […] After 30 min of test compound/vehicle pre-treatment, PBMC are stimulated for 30 min at 37° C. 5% CO2 with recombinant human IFNα (PeproTech, catalog number 300-02A) at a final concentration of 5 ng/mL by addition of 20 μL (10× concentrated) cytokine trigger to obtain a final volume of 200 μL per well.
After 30 min of cytokine stimulation, 200 μL of cell suspension is transferred to a 96-well V-bottom plate, centrifugated for 5 min at 1000 rpm to pellet cells, followed by removal of supernatant.
as §1
RCLU(vehicle control): Relative Chemiluminescent signal determined in presence of vehicle and trigger
RCLU(test compound): Relative Chemiluminescent signal determined in presence of test compounds and trigger
RCLU(positive control): Relative Chemiluminescent signal determined in presence of positive control and trigger
PIN values are plotted for compounds tested in dose-response and average IC50 values are derived using GraphiPad Prism Software applying non-linear regression (sigmoidal) curve fitting.

[3] = molecular target: T1, Recombinant human TYK2 catalytic domain (amino acids 871-1187) (Homo sapiens, UniProt P29597); test: TYK2 radioactive assay polyGT substrate; assay type: biochemical; further: 0.1 µM ATP
T1 construct: catalytic domain (amino acids 871-1187)
T1 sequence (P29597 871-1187): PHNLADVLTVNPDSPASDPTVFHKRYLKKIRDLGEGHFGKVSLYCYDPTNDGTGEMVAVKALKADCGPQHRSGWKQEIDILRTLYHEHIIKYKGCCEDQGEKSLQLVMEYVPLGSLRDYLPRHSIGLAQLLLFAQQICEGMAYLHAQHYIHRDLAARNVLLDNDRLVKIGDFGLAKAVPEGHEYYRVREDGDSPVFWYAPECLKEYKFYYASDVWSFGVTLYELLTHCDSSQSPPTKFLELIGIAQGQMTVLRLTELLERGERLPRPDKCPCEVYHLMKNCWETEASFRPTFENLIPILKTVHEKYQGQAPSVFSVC
Description: After 120 min at 30° C., reactions were stopped by adding 25 μL/well of 150 mM phosphoric acid. […] Plates were washed 6 times with 300 μL per well of a 75 mM phosphoric acid solution and the bottom of the plates is sealed. […] Kinase activity is calculated by subtracting counts per min (cpm) obtained in the presence of a positive control inhibitor (10 μM staurosporine) from cpm obtained in the presence of vehicle. The ability of a test compound to inhibit this activity (or percentage inhibition) is determined as: […]
cpm test compound=cpm determined for sample with test compound present cpm control=cpm determined for sample with positive control inhibitor cpm vehicle=cpm determined in the presence of vehicle
Dose dilution series were prepared for the compounds enabling the testing of dose-response effects in the TYK2 assay and the calculation of the IC50 for each compound. Each compound is routinely tested at concentration of 20 μM followed by a 1/5 serial dilution, 10 points in a final concentration of 1% DMSO.

SMILES | IC50 [1] [nM] | IC50 [3] [nM] | IC50 [2] [nM]
Cc1cc(C#N)ncc1Oc1cc(Nc2ccc(OC3CN(C)C3)nn2)c2ncn(C)c2n1 [Compound 90, 4-methyl-5-[3-methyl-7-[[6-(1-methylazetidin-3-yl)oxypyridazin-3-yl]amino]imidazo[4,5-b]pyridin-5-yl]oxypyridine-2-carbonitrile] | 1520 | 12.4 | 288
Cc1cc(C#N)ncc1Oc1cc(Nc2ccc(C(=O)N3CC(O)C3)cn2)c2ncn(C)c2n1 [Compound 96, 5-[7-[[5-(3-hydroxyazetidine-1-cabonyl)-2-pyridyl]amino]-3-methyl-imidazo[4,5-b]pyridin-5-yl]oxy-4-methyl-pyridine-2-carbonitrile] | 358 | 2.51 | 73
Cc1cc(C#N)ncc1Oc1cc(Nc2ccc(C(=O)N3CC[C@@H](N(C)C)C3)cn2)c2ncn(C)c2n1 [Compound 107, 5-[7-[[5-[(3R)-3-(dimethylamino)pyrrolidine-1-carbonyl]pyridin-2-yl]amino]-3-methylimidazo[4,5-b]pyridin-5-yl]oxy-4-methylpyridine-2-carbonitrile] | 622 | 5.44 | 110
Cc1cc(C#N)ncc1Oc1cc(Nc2ccc(C(=O)N3CC(CO)C3)cn2)c2ncn(C)c2n1 [Compound 118, 5-[7-[[5-[3-(hydroxymethyl)azetidine-1-carbonyl]-2-pyridyl]amino]-3-methyl-imidazo[4,5-b]pyridin-5-yl]oxy-4-methyl-pyridine-2-carbonitrile] | 299 | 2.81 | 110
Cc1cc(C#N)ncc1Oc1cc(Nc2ccc(C(=O)N3CC[C@H](N(C)C)C3)cn2)c2ncn(C)c2n1 [Compound 133, 5-[7-[[5-[(3S)-3-(dimethylamino)pyrrolidine-1-carbonyl]pyridin-2-yl]amino]-3-methylimidazo[4,5-b]pyridin-5-yl]oxy-4-methylpyridine-2-carbonitrile] | 981 | 6.67 | 121
Cc1cc(C#N)ncc1Oc1cc(Nc2ccc(C(=O)N3CCC(C)(O)CC3)cn2)c2ncn(C)c2n1 [Compound 138, 5-[7-[[5-(4-hydroxy-4-methylpiperidine-1-carbonyl)pyridin-2-yl]amino]-3-methylimidazo[4,5-b]pyridin-5-yl]oxy-4-methylpyridine-2-carbonitrile] | 332 | 1.66 | 91
Cc1cc(C#N)ncc1Oc1cc(Nc2ccc(C(=O)N3C[C@@H](O)[C@H](N(C)C)C3)cn2)c2ncn(C)c2n1 [Compound 153, 5-{7-[5-((3R,4R)-3-Dimethylamino-4-hydroxy-pyrrolidine-1-carbonyl)-pyridin-2-ylamino]-3-methyl-3H-imidazo[4,5-b]pyridin-5-yloxy}-4-methyl-pyridine-2-carbonitrile] | 7580 | 1.83 | 234

Compounds with a lower IC50 [1], results first:

IC50 [1] [nM] | IC50 [3] [nM] | SMILES | IC50 [2] [nM]
261 | 2.56 | Cc1cc(C#N)ncc1Oc1cc(Nc2ccc(C(=O)N3CC(C)(O)C3)cn2)c2ncn(C)c2n1 [Compound 119, 5-[7-[[5-(3-hydroxy-3-methyl-azetidine-1-carbonyl)-2-pyridyl]amino]-3-methyl-imidazo[4,5-b]pyridin-5-yl]oxy-4-methyl-pyridine-2-carbonitrile] | 81
238 | 2 | Cc1cc(C#N)ncc1Oc1cc(Nc2ccc(C(=O)N3CCO[C@H](C)C3)cn2)c2ncn(C)c2n1 [Compound 145, 4-methyl-5-[3-methyl-7-[[5-[(2R)-2-methylmorpholine-4-carbonyl]pyridin-2-yl]amino]imidazo[4,5-b]pyridin-5-yl]oxypyridine-2-carbonitrile] | 134
213 | 1.66 | Cc1cc(C#N)ncc1Oc1cc(Nc2ccc(C(=O)N3CCOC[C@@H]3C)cn2)c2ncn(C)c2n1 [Compound 147, 4-methyl-5-[3-methyl-7-[[5-[(3S)-3-methylmorpholine-4-carbonyl]pyridin-2-yl]amino]imidazo[4,5-b]pyridin-5-yl]oxypyridine-2-carbonitrile] | 121
211 | 2.15 | Cc1cc(C#N)ncc1Oc1cc(Nc2ccc(C(=O)N3CCO[C@@H](C)C3)cn2)c2ncn(C)c2n1 [Compound 144, 4-methyl-5-[3-methyl-7-[[5-[(2S)-2-methylmorpholine-4-carbonyl]pyridin-2-yl]amino]imidazo[4,5-b]pyridin-5-yl]oxypyridine-2-carbonitrile] | 119
195 | 8.15 | Cc1cc(C#N)ncc1Oc1cc(Nc2ccc(CN3CCOCC3)cn2)c2ncn(C)c2n1 [Compound 82, 4-methyl-5-[3-methyl-7-[[5-(morpholin-4-ylmethyl)pyridin-2-yl]amino]imidazo[4,5-b]pyridin-5-yl]oxypyridine-2-carbonitrile formate salt] | 126
160 | 2.08 | Cc1cc(C#N)ncc1Oc1cc(Nc2ccc(C(=O)N3C[C@@H](C)O[C@@H](C)C3)cn2)c2ncn(C)c2n1 [Compound 148, 4-methyl-5-[3-methyl-7-[[5-[rac-(2R,6S)-2,6-dimethylmorpholine-4-carbonyl]pyridin-2-yl]amino]imidazo[4,5-b]pyridn-5-yl]oxypyridine-2-carbonitrile] | 142
108 | 2.88 | COCC1CN(C(=O)c2ccc(Nc3cc(Oc4cnc(C#N)cc4C)nc4c3ncn4C)nc2)C1 [Compound 104, 5-[7-[[5-[3-(methoxymethyl)azetidine-1-carbonyl]-2-pyridyl]amino]-3-methyl-imidazo[4,5-b]pyridin-5-yl]oxy-4-methyl-pyridine-2-carbontrile] | 65
94 | 2.63 | Cc1cc(C#N)ncc1Oc1cc(Nc2ccc(C(=O)N3CCOCC3)nn2)c2ncn(C)c2n1 [Compound 108, 4-methyl-5-[3-methyl-7-[[6-(morpholine-4-carbonyl)pyridazin-3-yl]amino]imidazo[4,5-b]pyridin-5-yl]oxypyridine-2-carbonitrile] | 52
89 | 2.32 | Cc1cc(C#N)ncc1Oc1cc(Nc2ccc(C(=O)N3CC(OC(C)C)C3)cn2)c2ncn(C)c2n1 [Compound 137, 4-methyl-5-[3-methyl-7-[[5-(3-propan-2-yloxyazetidine-1-carbonyl)pyridin-2-yl]amino]imidazo[4,5-b]pyridin-5-yl]oxypyridine-2-carbonitrile] | 62
63.5 | 2.73 | COC1CN(C(=O)c2ccc(Nc3cc(Oc4cnc(C#N)cc4C)nc4c3ncn4C)nc2)C1 [Compound 103, 5-[7-[[5-(3-methoxyazetidine-1-carbonyl)-2-pyridyl]amino]-3-methyl-imidazo[4,5-b]pyridin-5-yl]oxy-4-methyl-pyridine-2-carbonitrile] | 68
